The test system of series [1] is Cruzipain. Particulars: mechanism of action; ref [13],[14],[15]; cited from earlier work.
Series [2] has as its system L. amazonensis. Briefly: Growth inhibition of L. amazonensis promastigotes (resazurin). The conditions noted are these: for Selectivity Index MΦ/L. amaz: EC50 mammalian cell line/EC50 L. amazonensis; for EC50: Leishmania amazonensis, read-out: EC50 ± SD L. amaz. On the technique in general: The colour change of resazurin is a common sign of viable cells or microbes.
For series [3] the following is noted: mice, up and down test, cited from earlier work.
The conditions of series [4]: cited from earlier work.
In series [5] the test system is L. infantum reference strain (MHOM/BR/2002/LPC-RPV). Briefly: Growth inhibition of L. infantum reference strain promastigotes (resazurin). The conditions noted are these: for Selectivity Index MΦ/Lin–Ref: EC50 mammalian cell line/EC50 L. infantum reference strain; for EC50: Leishmania infantum, read-out: EC50 ± SD Lin–Ref.
Series [6] has as its system L. infantum amastigote. Kind of series: Single dose study in the amastigote form of L. infantum. The series is classed as cell-based. The conditions noted are these: Leishmania infantum, single dose 10 µM.
The nature of series [7]: Acute oral toxicity (up and down test). The conditions noted are these: mice.
Series [8] has as its system fibroblasts (NCTC929). Kind of series: Cytotoxicity in fibroblasts. The class given is cell-based. The conditions noted are these: NCTC-929, read-out: EC50 ± SD Fibroblasts. The source says:
Table 5 Cytotoxicity and selectivity index of reference drugs and selected molecules. | column: EC50 ± SD (µM) ^a / Fibroblasts

Series [9] has as its system L. infantum veterinary isolate (MCAN_UY_2015_gPL8). Kind of series: Growth inhibition of L. infantum veterinary isolate promastigotes (resazurin). The conditions noted are these: for Selectivity Index MΦ/Lin–Vet: EC50 mammalian cell line/EC50 L. infantum veterinary isolate; for EC50: Leishmania infantum, read-out: EC50 ± SD Lin–Vet.
The subject of series [10] is T. brucei. Briefly: Growth inhibition of T. brucei bloodstream form trypomastigotes (resazurin). The series is classed as cell-based, Trypanosoma brucei brucei. The conditions noted are these: for EC50: Trypanosoma brucei, read-out: EC50 ± SD T. brucei. The protocol:
Compounds were dissolved in dimethylsulfoxide (DMSO).

In series [11] the test system is T. cruzi. More on the design: method as in PMID 31652542. Particulars: mice, ref [16], cited from earlier work.
Series [12] has as its system L. braziliensis. Particulars: read-out: EC50 ± SD L. brazils, cited from earlier work.
Series [13] deals with human macrophages. Kind of series: Cytotoxicity in human macrophages. Particulars: 50 µM. The series is classed as cell-based. As to the method:
Differentiation of THP-1 to produce macrophage-like cells was carried out using phorbol 12-myristate-13-acetate (Sigma-Aldrich, Deisenhofen, Germany).
All assays were performed in triplicate.

For series [14] the following is noted: cited from earlier work; for Ames Test (mutagenicity): ref [13],[14],[15].
Series [15] has as its system T. cruzi. Particulars: cited from earlier work.
Series [16] concerns J774.1 murine macrophages. Kind of series: Nonspecific cytotoxicity in murine macrophages (MTT). The conditions noted are these: Mus musculus, J774.1, read-out: EC50 ± SD MΦ.
Description: Cell viability was then assessed using the 3-(4,5-dimethylthiazol-2-yl)-2,5-diphenyltetrazolium bromide (MTT) colorimetric assay [1]. […] All assays were performed in triplicate [35].
On the set-up of series [17]: method as in PMID 24749923, PMID 26492824, PMID 25512408. The conditions noted are these: ref [13],[14],[15]; cited from earlier work.
Series [18] concerns L. amazonensis. Kind of series: Murine model of cutaneous Leishmaniasis. The conditions noted are these: BALB/c mice, oral.
Description: For the in vivo model of cutaneous disease, 1 × 10^7 amastigote parasites of L. amazonensis PH8 were inoculated in the upper part of the left paw of the mice. […] The mice were sacrificed 30 days post-infection. The antiparasitic effect was evaluated by two methods: the weekly evolution of the diameter of the infected paw throughout the experiment (Figure 2C) and the quantification of the parasite load in the infected area at the end of the experiment (Figure 2A).
Golden hamsters (Mesocritus auratus) were used to maintain L. amazonensis infections with the parasites passage every 6 to 8 weeks. BALB/c mice (female and male) supplied by the IFFA-CREDO, Lyon, France, and bred at the Instituto de Investigaciones en Ciencias de la Salud, Asuncion, Paraguay, were inoculated in the right hind footpad with 2 × 10^6 L. amazonensis amastigotes in 100 µL PBS obtained from donor hamsters. Disease progression was monitored by the measurement of lesion diameters for 7 to 12 weeks. […] Two days before the administration of the drug, the mice were randomly divided into groups of eight. […] The animals were euthanized two weeks after cessation of treatments to assess parasitological loads in the infected footpad. […] Following incubation at 27 °C for seven days, cultures were examined with an inverted microscope (Olympus, Tokyo, Japan) at a magnification of ×400. The number of parasites per gram in the lesion was calculated by the following equation: Parasite burden = geometric mean of the number of parasites in each duplicate/(number of microscope field counted × weight of lesion × (25,000) hemocytometer correction factor) [37]. […] Comparisons of parasite suppression in the infected footpads of the untreated and drug-treated groups were performed by Student’s t-test. One-way ANOVA (as a non-parametric statistical test) was also used on ranks.
Series [19] deals with human red blood cells. Briefly: Red Blood Cell Lysis Assay. The class given is cell-based. The conditions noted are these: 50 µM. The protocol: To assess a compound’s hemolytic activity the Red Blood Cell Lysis Assay (national blood bank) was performed. A compound-containing erythrocyte (2% (w/v)) suspension prepared in phosphate-buffered saline pH 7.4 was incubated for 24 h at 37 °C and the amount of hemoglobin released into the supernatant determined spectrophotometrically using a Varioskan TM Flash Multimode Reader (Thermo ScientificTM, MA, USA) set to a wavelength of 405 nm. The % hemolysis was determined using the follows equation: % released hemoglobin = [(A1 − A0)/(A1water)] × 100, where A1 and A0 represent the absorbance at 405 nm of the test sample at 0 and 24 h, and A1water the absorbance at 405 nm of water at 24 h. The experiments were performed by quintuplicate. […]

Series [20] deals with T1, Triosephosphate isomerase from L. mexicana (LmTIM) (Leishmania mexicana, UniProt P48499).
T1 construct: made in house; host or cells: Escherichia coli
T1 sequence (P48499 whole entry): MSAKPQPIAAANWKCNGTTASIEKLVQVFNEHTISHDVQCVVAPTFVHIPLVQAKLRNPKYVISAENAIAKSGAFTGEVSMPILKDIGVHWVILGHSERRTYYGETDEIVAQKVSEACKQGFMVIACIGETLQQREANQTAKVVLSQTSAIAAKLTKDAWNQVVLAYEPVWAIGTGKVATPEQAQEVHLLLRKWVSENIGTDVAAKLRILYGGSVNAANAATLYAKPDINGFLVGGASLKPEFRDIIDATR
Briefly: LmTIM inactivation. The series is classed as biochemical. As to the method: (§1) Table S3. Activity of compound 796 in Triosephosphate isomerase from L. mexicana (LmTIM) […]
(§2) Expression and purification of proteins: TbTIM, LmTIM were expressed in Escherichia coli and purified as described in the literature. After purification, the enzyme, disolved in 100 mM triethanolamine, 10 mM EDTA and 1 mM dithiothreitol (pH 8), was precipitated with ammonium sulfate (75% saturation) and stored at 4 _C. Before use, extensive dialysis against 100 mM triethanolamine/10 mM EDTA (pH 7.4) was performed. Protein concentration was determined by absorbance at 280 nm (ε= 36,440 M-1cm-1) TbTIM and LmTIM. Enzymatic activity assays: Enzymatic activity was determined following the conversion of glyceraldehyde 3‐phosphate into dihydroxyacetone phosphate. The decrease in absorbance at 340 nm was followed in a multi‐cell Cary spectrophotometer at 25 °C. The reaction mixture (1 mL, pH 7.4) contained 100 mM triethanolamine, 10 mM EDTA, 0.2 mM NADH, 1 mM glyceraldehyde 3‐phosphate and 0.9 units of _‐glycerol phosphate dehydrogenase. The reaction was initiated by the addition of 5 ng/mL of the TbTIM. For the inhibition studies, TcTIM, LmTIM and TbTIM were incubated at a concentration of 5 mg/mL in a buffer containing 100 mM triethanolamine, 10 mM EDTA, pH 7.4 and 10% of DMSO at 36 _C. The mixture also contained the compounds at the indicated concentrations. Compounds were dissolved in DMSO. […]

A short description of series [21]: in vivo. The conditions noted are these: male, B6D2F1, mouse, po, 2000 mg/kg.
Series [22] in a line: Liver fraction stability (cytosolic and microsomal fraction of rat hepatocytes, TLC). Particulars: rat hepatocyte cytosolic and microsomal fractions, 37 °C. The series is classed as in vitro ADME. The protocol: For the determination of the stability in the different fractions, (cytosolic and microsomal of rat hepatocytes) the different proteins present in them were used. The fractions were prepared according to the previously reported protocol. […] The final concentration of the molecules in the aqueous medium was 400 µM and prepared from a stock in DMSO of 40 mM. The solutions were homogenized and incubated at 37 °C at 10 min, 30 min, 1 h, 2 h, 3 h and 4 h. (by TLC). For this, it was incubated at 37 °C in a volume of 1 mL: 2.5 µL of 30 mM Magnesium Chloride (MgCl); 2.5 µL of 40 mM Nicotinamide Adenosine Dinucleotide Phosphate (NADP+); 5 µL of 350 mM Glucose 6- Phosphate (Glu6P); 5 µL of Glucose 6- phosphate dehydrogenase (Glu6PD) 50 U/mL, 5 µL of the stock of 40 mM compounds and the volume of the Phosphate Buffer (pH = 7) must be such that cytosolic (CF) and microsomal (MF) fraction FC and FM present a final protein concentration of 0.1 mg/mL. After that, the stability of compounds 796 and 1019 in the cytosolic (FCF) and microsomal (FMF) fraction of rat hepatocytes was evaluated at different times (1–4 h). Thin-layer chromatography of ethyl acetate extracts was conducted to evaluate the presence of decomposition products. The mobile phase used for these TLCs was n-hexane: ethyl acetate (7: 3).

Series [23] has as its target T2, Triosephosphate isomerase from T. brucei (TbTIM) (Trypanosoma brucei brucei, UniProt P04789).
T2 construct: made in house; host or cells: Escherichia coli
Kind of series: TbTIM inactivation. The series is classed as biochemical. As to the method:
as §1, §2

Series [24] deals with triosephosphate isomerase. Particulars: mechanism of action; ref [13],[14],[15]; cited from earlier work.
Setting [25] is: Table 4, curcuminoids, ref [14].
Setting [26] is: Table 4, curcuminoids, ref [14], read-out: EC50 ± SD T. cruzi.
Setting [27] is: epimastigotes, multiple strains, ref [13],[14],[15], read-out: EC50 in vitro anti-T. cruzi, epimastigotes.

Read-outs that look alike come from different tables or passages of the source.

T2 sequence (P04789 whole entry): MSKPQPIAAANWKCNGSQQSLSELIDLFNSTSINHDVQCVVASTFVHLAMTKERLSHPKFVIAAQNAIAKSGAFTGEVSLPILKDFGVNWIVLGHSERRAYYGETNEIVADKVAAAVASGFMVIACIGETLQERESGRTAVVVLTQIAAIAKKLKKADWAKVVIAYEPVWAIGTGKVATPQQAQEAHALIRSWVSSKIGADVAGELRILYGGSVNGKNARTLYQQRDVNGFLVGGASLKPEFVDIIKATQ

A word on the IC50: it is the midpoint of a concentration-inhibition curve. As usually defined, the EC50 is the concentration giving half of the maximal effect. Usually inhibition stands for the change of the read-out against control, counted positive when it falls. Lower therefore signals a weak effect. Turning to `C=CCn1c(C(=O)N2CCN(C/C=C/c3ccccc3)CC2)cs\c1=N/N=C/C=C/c1ccco1` [Compound 314], in series [1], the IC50 is 4.3 µM. Besides, the “Selectivity Index MΦ/L. amaz” value in series [2] was 3. For the same compound, the EC50 is 12 ± 5 µM in series [2]; 1.3 ± 0.5 µM in series [5]; 346 ± 9 µM in series [8]; 2.5 ± 1 µM in [9]; 5 ± 1 µM in series [10] (Table 3, thiazolidene hydrazines); 4 ± 1 µM in [12] (Table 3, thiazolidene hydrazines, ref [13],[16],[19],[23],[25]). The EC50 in series [15] (Table 3, thiazolidene hydrazines, ref [13],[16],[19],[23],[25], read-out: EC50 ± SD T. cruzi) was 3.1 ± 0.2 µM; in series [15] (amastigotes, multiple strains, ref [13],[14],[15], read-out: EC50 in vitro anti-T. cruzi, amastigotes), 0.72 µM; in series [16], 30 ± 5 µM. Further, the “acute toxicity LD50” value in [3] (previously evaluated, ref [13],[16]) is on record as > 2000 mg/kg of weight. The “Acute oral toxicity LD50” value in series [3] (ref [13],[14],[15]) is “^d LD50 > 2000 mg/kg in mice”. In addition, the “micronucleus test, genotoxicity” value in [4] (previous works, ref [13],[16]) is “not genotoxic”. In addition, the “Micronucleus test in mice (Genotoxicity)” value in series [4] (ref [13],[14],[15]) was “No”. The “Selectivity Index MΦ/Lin–Ref” value in [5] is 23. Also, the inhibition at 10 µM in series [6] worked out at 85%. In addition, in [7], the “survival in the acute toxicity model in vivo” value came to 100%. Further, in series [9], the “Selectivity Index MΦ/Lin–Vet” value came out at 12. In series [11] (oral, same dose as in the Leishmaniasis in vivo assay), the reduction of parasitemia result was “more than 60%”. Moreover, the survival in [11] (mean 60% survival in untreated group) is on record as 100%. Further, the “cytotoxicity in human macrophages” value in series [13] is on record as “did not see any inhibition”. In addition, the “AMES test, mutagenic capacity” value in series [14] (previous works, ref [13],[16]) is given as “negative”. The “Ames Test (mutagenicity)” value in [14] was “No”. Further, the “Stability in vitro (microsomal, plasma, other solutions)” value (from here on “Stability in vitro”) in series [17] is “High”. The “leishmanicidal activity in vivo” value in series [18] (half the dose of 796) is given as “low”. Moreover, the “cytotoxicity in human red blood cells” value in series [19] was “did not see any inhibition”.

A word on the LD50: it is the dose at which mortality reaches 50%. A high value points to lower toxicity. `O=C(/C=C/c1cccs1)/C=C/c1cccs1` [Compound 796]: the “Selectivity Index MΦ/L. amaz” value in series [2] was 5. For the same compound, the EC50 in series [2] is 8 ± 2 µM; in series [5], 4 ± 0.5 µM; in series [8] it was 158 ± 5 µM; in series [9] it was 10 ± 2 µM; in [10] (Table 4, curcuminoids), 0.6 ± 0.1 µM; in series [12] (setting [25]) it was 4 ± 0.5 µM. In addition, the figures for the EC50 in series [15] (setting [26]), in series [15] (setting [27]) and in [16] were 5 ± 0.8 µM, 5 µM and 38 ± 7 µM, respectively. For the same compound, the inhibition at 50 µM turned out to be 42.5% in series [20] and 61% in series [23]. In addition, the “Selectivity Index MΦ/Lin–Ref” value in series [5] was 10. This compound yielded an LD50 at 14 days in [21] above 2000 mg/kg. Further, the “metabolic stability: time compound detected / degraded” value in series [22] is at least 4 h. In addition, in series [6], at 10 µM the inhibition was 90%. Besides, in [7], the “survival in the acute toxicity model in vivo” value was found to be 100%. Besides, the “Selectivity Index MΦ/Lin–Vet” value in series [9] came out at 4. In addition, in [13], the “cytotoxicity in human macrophages” value was “did not see any inhibition”. In series [17], the “Stability in vitro” value is recorded as “moderate”. Besides, the “% of suppression of the parasites” value in series [18] (parasite load in lesion, 796 at 203 µmol/kg, other molecules at half that dose) was “more than 50%”. Also, in [18] (when treatment begins (Figure 2C)), the “diameter of the paw” value is “begins to decrease”. In [19], the “cytotoxicity in human red blood cells” value is recorded as “did not see any inhibition”. Further, the “Media Mn/Mouse ± SD” value (male, CD-1, mouse, in vivo, 150 mg/kg) was found to be 5 ± 1. Also, the “Number EPMn (total polychromatic micronucleated erythrocytes in the 5 assays)” value (mice, 796 150 mg/kg oral, Cyclophosphamide intraperitoneal positive control, 5000 EPC observed) amounted to 21.

As for `O=C1/C(=C/C=C/c2ccco2)CCC/C1=C\C=C\c1ccco1` [Compound 1019], the EC50 in series [2] was 7 ± 1 µM; in series [5], below 0.3 µM; in series [12] (setting [25]), 13 ± 7 µM; in [15] (setting [26]), 0.6 ± 0.2 µM; in series [15] (setting [27]) it was 0.6 µM. Further, in [9], the “growth inhibitory / trypanosomicidal effect on the L. infantum canine-derived isolate” value is reported as “no trypanosomicidal effect”. Besides, in series [24], the IC50 is 0.086 µM. The “trypanosomicidal effect on T. brucei” value in series [10] was “no trypanosomicidal effect”. For the same compound, the “Ames Test (mutagenicity)” value in series [14] is given as “no”. In [17], the “Stability in vitro” value is recorded as “low”.

The values above are taken from article PMC8308625, “Preclinical Studies in Anti-Trypanosomatidae Drug Development” (Pharmaceuticals, 2021).
